Assay results: patent US20080139664A1, “ANTI-GLYCATION AGENTS FOR PREVENTING AGE-, DIABETES-, AND SMOKING-RELATED COMPLICATIONS” (NATIONAL RESEARCH COUNCIL OF CANADA, priority 2001, published 2008)
Where a name gives a salt, the structure may show the parent alone. Read-outs that look alike come from different tables or passages of the source.

How the values were obtained:
lysozyme = experiment: ESI-MS of lysozyme glycoforms after incubation with D-ribose; conditions: 37° C., 5 days; for Peak area as % of total area of all glycoforms, 14,569: lysozyme + 2D-ribose − 2H2O (14,569 Da); for Peak area as % of total area of all glycoforms, 14,551: lysozyme + 2D-ribose − 3H2O (14,551 Da); for Peak area as % of total area of all glycoforms, 14,533: lysozyme + 2D-ribose − 5H2O (14,533 Da); for Peak area as % of total area of all glycoforms, 14,515: lysozyme + 2D-ribose − 6H2O (14,515 Da); for Peak area as % of total area of all glycoforms, 14,419: lysozyme + D-ribose − 2H2O (14,419 Da); for Peak area as % of total area of all glycoforms, 14,401: lysozyme + D-ribose − 3H2O (14,401 Da); for Peak area as % of total area of all glycoforms, 14,437: lysozyme + D-ribose − H2O (14,437 Da); for Peak area as % of total area of all glycoforms, 14,496: lysozyme + D-ribose − H2O with one carboxymethylated Lys residue (14,496 Da); for Peak area as % of total area of all glycoforms, 14,364: lysozyme with one carboxymethylated Lys residue (14,364 Da); for Peak area as % of total area of all glycoforms, 14,305: unmodified lysozyme (14,305 Da);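 for all read-outs here: lysozyme incubated with D-ribose, with or without anti-glycation agents, then separated by reversed-phase HPLC and analysed by electrospray mass spectrometry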
Experimental: The effect of anti-glycation agents on the accumulation of glycated forms (glycoforms) of protein was evaluated by using electrospray mass spectrometry (ESI-MS). As the molecular mass of BSA was too large to monitor the small mass changes of its glycoforms, lysozyme was incubated with D-ribose and anti-glycants. Lysozyme and its glycoforms were isolated by RP-HPLC and analyzed by mass spectrometry.
Samples of lysozyme (0.756 mM; 4.54 mM of Lys residues) and D-ribose (50 mM) were incubated in the presence and absence of the selected anti-glycation agents at 37° C. for 5 days and subjected to electrospray mass spectrometry (ESI-MS) in order to characterize the protein intermediates as well as carboxymethylated lysozyme. Prior to MS measurements, the proteins were isolated by reversed phase-HPLC and were semi-dried by freeze drying.

[1] = tested on: bovine serum albumin (BSA); experiment: Fluorescamine assay of free primary amino groups of BSA incubated with D-ribose; assay type: biochemical; conditions: for Unreacted amino group: free primary amino group on BSA after 5 days at 37° C., agent at 16.8 times IC50, 64% without agent
Experimental: Fluorescamine assay (Yeboah F. et al., J. Agric. Food Chem. 48, 2766-2774 (2000)) was performed on incubated mixtures of BSA and D-ribose, with or without the identified anti-glycation agents. The mixtures contained BSA (0.075 mM protein concentration or 4.53 mM of Lys residue concentration) and D-ribose (50 mM). […] The fluorescamine assay determines the number of free lysine residues of BSA. In this experiment, the final volume of the incubation mixtures was 10 mL and the incubation time was 5 days at 37° C. Prior to the fluorescamine assay, the proteins were isolated by reverse phase HPLC. The protein content was determined using the Bio-Rad protein determination reagent (Bradford method). The fluorescamine assay was done in triplicate.

[2] = tested on: bovine serum albumin (BSA)
[3] = tested on: bovine serum albumin (BSA); experiment: Maillard fluorescence-based assay of AGEs formation, IC50 determination (BSA + D-ribose)
[4] = inhibition of Maillard fluorescence development, 0.075 mM BSA, 50 mM D-ribose, 37° C., 5 days

Compound: O=Cc1ccc(O)c(O)c1 [3,4-Dihydroxybenzaldehyde]
- Peak area as % of total area of all glycoforms, 14,569 (lysozyme): 1.8%
- Peak area as % of total area of all glycoforms, 14,551 (lysozyme): 3.0%
- Peak area as % of total area of all glycoforms, 14,533 (lysozyme): 0.0%
- Peak area as % of total area of all glycoforms, 14,515 (lysozyme): 1.2%
- Peak area as % of total area of all glycoforms, 14,419 (lysozyme): 3.1%
- Peak area as % of total area of all glycoforms, 14,401 (lysozyme): 0.0%
- Peak area as % of total area of all glycoforms, 14,437 (lysozyme): 10.9%
- Peak area as % of total area of all glycoforms, 14,496 (lysozyme): 1.5%
- Peak area as % of total area of all glycoforms, 14,364 (lysozyme): 0.0%
- Peak area as % of total area of all glycoforms, 14,305 (lysozyme): 78.6%
- Unreacted amino group [1]: 32%
- effect on protection of amino groups of BSA ([1]; in words): seem to accelerate the modification of the amino groups
- IC50 [2]: 120 µM

Compound: Cc1ncc([N+](=O)[O-])n1CC(O)CCl (centres unmarked) [Ornidazole]
- Peak area as % of total area of all glycoforms, 14,569 (lysozyme): 4.8%
- Peak area as % of total area of all glycoforms, 14,551 (lysozyme): 3.4%
- Peak area as % of total area of all glycoforms, 14,533 (lysozyme): 2.0%
- Peak area as % of total area of all glycoforms, 14,515 (lysozyme): 0.9%
- Peak area as % of total area of all glycoforms, 14,419 (lysozyme): 6.7%
- Peak area as % of total area of all glycoforms, 14,401 (lysozyme): 0.0%
- Peak area as % of total area of all glycoforms, 14,437 (lysozyme): 23.4%
- Peak area as % of total area of all glycoforms, 14,496 (lysozyme): 0.0%
- Peak area as % of total area of all glycoforms, 14,364 (lysozyme): 3.2%
- Peak area as % of total area of all glycoforms, 14,305 (lysozyme): 54.2%
- Unreacted amino group [1]: 60%
- IC50 [2]: 570 µM

Compound: O=c1cc(-c2cccc(O)c2)oc2cc(O)c(O)cc12 [6,7,3′-Trihydroxyflavone]
- IC50 [3, 4]: 940 µM

Compound: D,L-Epinephrine
- IC50 [3]: 15 µM

Compound: O=[N+]([O-])c1cc(I)c(O)c(I)c1 [2,6-Diiodo-4-nitrophenol]
- IC50 [3, 4]: 1300 µM

Compound: O=c1cc(-c2ccc(O)c(O)c2)oc2ccccc12 [3′.4′-Dihydroxyflavone]
- IC50 [3, 4]: 2600 µM

Compound: O=c1c(-c2ccc(O)cc2)coc2cc(O)cc(O)c12 [Genistein]
- IC50 [3, 4]: 450 µM

Compound: N[C@@H](Cc1cc(I)c(O)c(I)c1)C(=O)O [3,5-Diiodo-L-tyrosine]
- IC50 [3, 4]: 1500 µM

Compound: COC1=C[C@@H]2[C@@H]3Cc4ccc(OC)c(O)c4[C@]2(CCN3C)CC1=O [Sinomenine]
- IC50 [3, 4]: > 4000 µM

Compound: CCCCCCCCCCCCCCCC(=O)OC[C@@H](NC(=O)C(Cl)Cl)[C@H](O)c1ccc([N+](=O)[O-])cc1 [Chloramphenicol palmitate]
- IC50 [3, 4]: > 4000 µM

Compound: Cc1c(C)c2c(c(C)c1O)CCC(C)(C(=O)O)O2 (centres unmarked) [Trolox C]
- IC50 [3, 4]: 470 µM

Compound: O=C1CN(/N=C/c2ccc(-c3ccc([N+](=O)[O-])cc3)o2)C(O)=N1 [Dantrolene]
- IC50 [3, 4]: 100 µM

Compound: C=CCN1CC[C@]23c4c5ccc(O)c4O[C@H]2/C(=N/N=C2\CC[C@@]4(O)[C@H]6Cc7ccc(O)c8c7[C@@]4(CCN6CC=C)[C@H]2O8)CC[C@@]3(O)[C@H]1C5 [Naloxonazine]
- IC50 [3, 4]: 1700 µM

Compound: NC(=O)N/N=C/c1ccc([N+](=O)[O-])o1 [Nitrofurazone]
- Peak area as % of total area of all glycoforms, 14,569 (lysozyme): 4.2%
- Peak area as % of total area of all glycoforms, 14,551 (lysozyme): 2.8%
- Peak area as % of total area of all glycoforms, 14,533 (lysozyme): 2.4%
- Peak area as % of total area of all glycoforms, 14,515 (lysozyme): 1.1%
- Peak area as % of total area of all glycoforms, 14,419 (lysozyme): 5.8%
- Peak area as % of total area of all glycoforms, 14,401 (lysozyme): 0.0%
- Peak area as % of total area of all glycoforms, 14,437 (lysozyme): 21.4%
- Peak area as % of total area of all glycoforms, 14,496 (lysozyme): 0.0%
- Peak area as % of total area of all glycoforms, 14,364 (lysozyme): 1.6%
- Peak area as % of total area of all glycoforms, 14,305 (lysozyme): 60.8%
- maximum percentage of the inhibition ([3]; Maillard fluorescence, listed if significantly lower than 100%): 50%)
- IC50 [3, 4]: 46 µM

Compound: O=c1c(O)c(-c2ccc(O)c(O)c2)oc2ccccc12 [3,3′,4′-Trihydroxyflavone]
- IC50 [3, 4]: 1800 µM

Compound: CC(CCc1ccccc1)NCC(=O)c1ccc(O)c(O)c1 (stereo not drawn) [α-(1-Methyl-3-phenyl-propylamino)-3,4-dihydroxyacetophenone hydrochloride]
- IC50 [3, 4]: 890 µM
